Legend:
[1] = molecular target: T1, NR2B surface expression in hNR1/PSD95/NR2B expressing HEK cells (Homo sapiens, UniProt Q13224); experiment: β-lactamase assay, restoration of NR2B surface expression after purified ANRE patient serum IgG; assay type: cell-based; details: 45 min purified patient serum IgG 1:50, then 15 min compound at 10 fM, 1 pM, 100 pM, 10 nM; FIG. 1 / FIG. 3
T1 construct: expressed in transfected cells; transient β-lactamase-hGluN2B
Procedure: (§1) Un-transfected (Untfx) cells were used as a negative control for surface β-lactamase activity.
(§2) hNR1/PSD95/NR2B-expressing HEK cells tagged with a β-lactamase enzyme at the N-terminus of NR2B are incubated with a 1:50 dilution of purified patient serum IgG for 45 min. The cells are washed with buffer to remove antibodies and then incubated for 15 min in the presence or absence of each of compounds A, B, or C at concentrations of 10 fM, 1 pM, 100 pM and 10 nM respectively. After said time, the membrane impermeable substrate nitrocefin and ±each of compounds A, B, and C are added. The NR2B N-terminal β-lactamase cleaves nitrocefin, resulting in a change of absorbance to 486 nm. The absorbance at 486 nm is measured every minute for 30 min.
Slopes of optical density are graphed as fold change over the vehicle. N=8; Statistics were determined by one-way ANOVA compared to antibody only (Ab). * p≤0.05, ** p≤0.01, *** p≤0.001, **** p≤0.0001 (FIG. 1).
(§3) Un-transfected (Untfx) cells were used as a negative control for surface β-lactamase activity. Human IgG (Sigma-Aldrich) at a concentration of 0.5 mg/ml was used as a negative control for non-specific receptor internalization.
hNR1/PSD95/NR2B expressing HEK cells tagged with a β-lactamase enzyme at the N-terminus of NR2B are incubated with purified patient serum IgG (1:50 dilution) for 45 min. The cells are washed to remove antibodies and then incubated for 15 min in the presence or absence of each of compounds A, B, C, D, E, F, G, and H at concentrations of 10 fM, 1 pM, 100 pM and 10 nM respectively. After said time, nitrocefin in buffer and ±each of compounds A-H are added and the absorbance at 486 nm is measured every minute for 30 min.
Slopes of optical density are graphed as fold change over the vehicle. N=8-12; Statistics were determined by one-way ANOVA compared to antibody only (Ab). * p≤0.05, ** p≤0.01, *** p≤0.001, **** p≤0.0001 (FIG. 3).
(§4) HEK293 cells stably expressing human GluN1 and PSD-95 were transiently transfected with hGluN2B tagged at the N-terminus with the β-lactamase enzyme using X-tremeGENE9 transfection reagent (Sigma-Aldrich). Transfected cultures were maintained in media containing ketamine (0.18 mg/ml) to minimize excitotoxicity. Twenty-four hours after transfection, cells were re-plated into poly-d-lysine coated 96-well plates at a concentration of 30,000 cells/well. The following day, cells were washed with buffer (HBSS, 10 mM HEPES, […]) and then incubated with a 1:50 dilution of purified patient IgG for 45 min at 37° C. The cells were washed once with buffer and then incubated for 15 min at 37° C. with buffer ±each of compound A, B and C. Nitrocefin in buffer (100 mM final; Cayman Chemical) ±each of compound A, B and C was added to each well and absorbance at 486 nm was measured every minute for 30 min at 37° C. in a plate reader. Un-transfected (Untfx) cells were used as a negative control for surface β-lactamase activity. Human IgG (Sigma-Aldrich) at a concentration of 0.5 mg/ml was used as a negative control for non-specific receptor internalization. Slopes of optical density are graphed as fold change over vehicle, mean ±SEM (n=8-12). Statistics were determined by one-way ANOVA compared to antibody only (Ab).

[2] = molecular target: T1, NR2B surface expression in hNR1/PSD95/NR2B expressing HEK cells; experiment: β-lactamase assay, NR2B surface expression, compound alone (absence of Ab), wild-type; assay type: cell-based; details: for surface NR2B expression in wild-type NR2B receptors relative to untreated vehicle controls: no antibody, varying concentrations, FIG. 6A-6C
Procedure: as §1, §2, §3, §4

[3] = molecular target: T1, NR2B surface expression in hNR1/PSD95/NR2B expressing HEK cells; experiment: β-lactamase assay, restoration of NR2B surface expression after purified ANRE patient serum IgG; assay type: cell-based; details: varying concentrations, FIG. 6A-6C
[4] = molecular target: T1, NR2B surface expression in hNR1/PSD95/NR2B expressing HEK cells; experiment: β-lactamase assay, restoration of NR2B surface expression after ANRE patient CSF; assay type: cell-based; details: after CSF (1:10 dilution) from ANRE patients N1, N2, N3; FIG. 2
Procedure: In this example hNR1/PSD95/NR2B expressing HEK cells tagged with a β-lactamase enzyme at the N-terminus of NR2B are incubated with CSF (1:10 dilution) from each of three individual ANRE patients (N1, N2, and N3).
as §4, with “The cells were washed once with buffer and then incubated for 15 min at 37° C. with buffer ±each of compound A, B and C. Nitrocefin in buffer (100 mM final; Cayman Chemical) ±each of compound A, B and C was added to each well and absorbance at 486 nm was measured every minute for 30 min at 37° C. in a plate reader.” left out

[5] = molecular target: T2, NR2B:R393A mutant receptors (Homo sapiens, UniProt Q13224, R393A); experiment: β-lactamase assay, NMDAR 2B trafficking in mutant R393A receptors; assay type: cell-based; details: FIG. 6A-6C; for ability to restore cell surface NR2B expression in NR2B:R393A mutant following ANRE patient serum IgG: after exposure to ANRE patient serum IgG
T2 construct: expressed in transfected cells; transient β-lactamase-hGluN2B R393A
Procedure: as §3, §4

[6] = test system: Schaffer collateral-CA1 synapses in hippocampal slices; experiment: Hippocampal slice LTP (fEPSP slope) with focal NR1 antibody application; assay type: cell-based, rat; details: 500 nM bath-applied, FIG. 5B
Text: Two extracellular recording patch pipettes were placed at equal distances (˜500 μm) on either side of a single bipolar stainless steel stimulating electrode (Frederick Haer Inc.). A single test stimulus was applied each 30 seconds, to evoke field excitatory postsynaptic potentials (fEPSPs) recorded simultaneously at the Control and Antibody (Ab) recording sites. […]
LTP was induced by the stimulation of Schaffer collateral axons with high frequency theta burst stimulus trains. The fEPSP slope was measured before and after the induction of LTP in hippocampal slices treated with control, control +NR1Ab, Compound A, or Compound A +NR1Ab.
The experimental protocol to test the effects of focal application of NR1 antibodies on synaptic transmission and long-term potentiation (LTP) of synaptic strength at Schaffer collateral-CA1 synapses in hippocampal slices in vitro is illustrated in FIG. 5A below. […] A single test stimulus was applied each 30 seconds, to evoke field excitatory postsynaptic potentials (fEPSPs) recorded simultaneously at the Control and Antibody (Ab) recording sites. […] Statistics were determined by Student's t-test for unpaired data.

T2 sequence (Q13224 27-1484 R393A, other chains not shown): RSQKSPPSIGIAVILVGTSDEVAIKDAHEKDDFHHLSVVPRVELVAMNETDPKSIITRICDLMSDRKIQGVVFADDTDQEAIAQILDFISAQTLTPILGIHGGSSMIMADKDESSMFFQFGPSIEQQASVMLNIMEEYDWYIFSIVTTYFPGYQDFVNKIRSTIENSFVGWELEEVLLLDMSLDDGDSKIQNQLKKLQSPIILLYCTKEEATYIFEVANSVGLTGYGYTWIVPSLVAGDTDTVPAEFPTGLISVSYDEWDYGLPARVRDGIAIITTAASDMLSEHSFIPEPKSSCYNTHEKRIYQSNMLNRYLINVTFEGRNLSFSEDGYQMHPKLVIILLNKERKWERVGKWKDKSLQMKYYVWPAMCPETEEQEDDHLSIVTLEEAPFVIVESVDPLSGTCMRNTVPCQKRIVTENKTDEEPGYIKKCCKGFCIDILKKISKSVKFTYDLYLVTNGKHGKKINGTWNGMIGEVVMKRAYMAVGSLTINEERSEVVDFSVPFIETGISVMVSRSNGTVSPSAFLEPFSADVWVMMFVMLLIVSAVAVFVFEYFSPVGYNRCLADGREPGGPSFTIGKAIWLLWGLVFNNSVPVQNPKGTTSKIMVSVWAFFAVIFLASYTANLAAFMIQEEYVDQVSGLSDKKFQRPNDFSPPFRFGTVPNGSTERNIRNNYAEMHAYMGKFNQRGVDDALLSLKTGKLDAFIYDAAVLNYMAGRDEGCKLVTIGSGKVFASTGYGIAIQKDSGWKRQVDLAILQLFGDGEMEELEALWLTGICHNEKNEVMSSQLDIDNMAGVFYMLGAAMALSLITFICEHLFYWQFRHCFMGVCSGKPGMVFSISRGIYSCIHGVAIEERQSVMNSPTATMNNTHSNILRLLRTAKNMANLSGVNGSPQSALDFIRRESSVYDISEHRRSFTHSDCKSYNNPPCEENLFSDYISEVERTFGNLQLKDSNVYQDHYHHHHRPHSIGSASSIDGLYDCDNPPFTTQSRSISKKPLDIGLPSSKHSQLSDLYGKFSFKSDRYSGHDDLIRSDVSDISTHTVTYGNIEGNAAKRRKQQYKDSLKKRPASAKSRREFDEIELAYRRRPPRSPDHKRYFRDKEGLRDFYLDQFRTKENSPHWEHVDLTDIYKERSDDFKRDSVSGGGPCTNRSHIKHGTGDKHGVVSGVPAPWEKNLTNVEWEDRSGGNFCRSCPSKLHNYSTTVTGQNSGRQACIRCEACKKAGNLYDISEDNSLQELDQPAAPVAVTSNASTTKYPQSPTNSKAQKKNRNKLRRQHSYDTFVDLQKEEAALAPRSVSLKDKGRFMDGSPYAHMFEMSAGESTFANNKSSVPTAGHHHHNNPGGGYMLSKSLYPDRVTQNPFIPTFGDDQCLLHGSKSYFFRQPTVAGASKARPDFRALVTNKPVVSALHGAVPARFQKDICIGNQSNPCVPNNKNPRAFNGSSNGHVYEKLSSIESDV
T1 sequence (Q13224 27-1484, other chains not shown): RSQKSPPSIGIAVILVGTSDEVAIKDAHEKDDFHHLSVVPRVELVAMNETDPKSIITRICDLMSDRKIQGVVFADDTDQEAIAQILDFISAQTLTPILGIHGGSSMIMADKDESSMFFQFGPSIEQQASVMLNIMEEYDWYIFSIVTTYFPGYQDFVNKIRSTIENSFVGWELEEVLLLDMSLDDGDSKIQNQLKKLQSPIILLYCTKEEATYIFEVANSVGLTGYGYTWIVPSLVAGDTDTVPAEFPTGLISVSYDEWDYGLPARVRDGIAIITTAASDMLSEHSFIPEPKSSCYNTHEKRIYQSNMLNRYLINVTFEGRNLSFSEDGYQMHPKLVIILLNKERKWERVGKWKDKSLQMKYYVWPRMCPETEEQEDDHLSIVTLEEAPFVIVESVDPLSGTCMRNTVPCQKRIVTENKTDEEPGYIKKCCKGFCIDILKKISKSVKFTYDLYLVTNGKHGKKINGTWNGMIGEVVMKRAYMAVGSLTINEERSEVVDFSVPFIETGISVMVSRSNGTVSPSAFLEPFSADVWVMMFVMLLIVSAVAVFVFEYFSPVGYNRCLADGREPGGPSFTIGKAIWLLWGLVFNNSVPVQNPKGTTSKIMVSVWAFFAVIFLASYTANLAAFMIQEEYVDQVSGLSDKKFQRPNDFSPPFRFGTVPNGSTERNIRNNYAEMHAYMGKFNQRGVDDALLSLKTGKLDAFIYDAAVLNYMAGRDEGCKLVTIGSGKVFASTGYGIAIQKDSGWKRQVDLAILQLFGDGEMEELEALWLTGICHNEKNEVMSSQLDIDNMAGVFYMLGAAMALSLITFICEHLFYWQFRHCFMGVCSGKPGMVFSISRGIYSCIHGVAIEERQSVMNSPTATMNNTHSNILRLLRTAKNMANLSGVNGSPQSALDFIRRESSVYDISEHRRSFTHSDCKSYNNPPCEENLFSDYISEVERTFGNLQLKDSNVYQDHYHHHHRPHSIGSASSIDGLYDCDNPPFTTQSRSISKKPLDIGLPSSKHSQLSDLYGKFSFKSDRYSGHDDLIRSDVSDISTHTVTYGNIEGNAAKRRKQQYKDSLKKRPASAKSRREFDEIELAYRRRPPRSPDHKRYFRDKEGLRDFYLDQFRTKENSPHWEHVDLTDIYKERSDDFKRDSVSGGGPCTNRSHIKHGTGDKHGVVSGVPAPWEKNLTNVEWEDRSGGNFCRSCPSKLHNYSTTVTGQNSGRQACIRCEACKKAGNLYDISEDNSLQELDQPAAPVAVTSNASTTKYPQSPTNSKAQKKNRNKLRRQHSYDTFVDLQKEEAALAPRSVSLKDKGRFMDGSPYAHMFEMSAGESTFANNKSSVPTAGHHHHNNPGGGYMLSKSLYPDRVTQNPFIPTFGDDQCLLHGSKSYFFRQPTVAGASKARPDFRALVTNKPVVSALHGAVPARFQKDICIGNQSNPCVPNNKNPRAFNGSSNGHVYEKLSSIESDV

| Compound | restoration of NR2B surface expression to "No Ab" control level [1] | surface NR2B expression in wild-type NR2B receptors relative to untreated vehicle controls [2] | restoration of NR2B surface expression to "No Ab" control level, wild-type NR2B (Example 6) [3] | restoration of cell surface NR2B expression to vehicle levels [4] | ability to restore cell surface NR2B expression in NR2B:R393A mutant [5] | ability to restore cell surface NR2B expression in NR2B:R393A mutant following ANRE patient serum IgG [5] | increase in cell surface NR2B expression ([2]; 1 pM, in the absence of Ab, positive control, wild-type) | rescue of Schaffer collateral-CA1 LTP from acute NMDAR1 antibody effects ([6]; NR1 antibody 1:20 dilution) | magnitude of LTP relative to control ([6]; after high frequency stimulation, no antibody) |
| --- | --- | --- | --- | --- | --- | --- | --- | --- | --- |
| COc1ccc(CN2C[C@@]3(CCNC(=O)C3)C2=O)cc1 [C] | restore NR2B surface expression to levels observed in the “No Ab” control | increase surface NR2B expression | restore NR2B surface expression to levels observed in the “No Ab” control | restored cell surface NR2B expression to vehicle levels | abolishes the ability | abolishes the ability | – | – | – |
| CC(C)CN1CCC[C@@]12CN([C@H](C(N)=O)[C@@H](C)O)C2=O [F] | failed to restore NR2B surface expression | – | – | – | – | – | – | – | – |
| CC(C)C(=O)N1CCC[C@@]12CN([C@H](C(N)=O)[C@@H](C)O)C2=O [B] | restore NR2B surface expression to levels observed in the “No Ab” control | increase surface NR2B expression | restore NR2B surface expression to levels observed in the “No Ab” control | restored cell surface NR2B expression to vehicle levels | abolishes the ability | abolishes the ability | – | – | – |
| CC(C)CN1[C@]2(CC[C@]13CNC3=O)CNC2=O [H] | failed to restore NR2B surface expression | – | – | – | – | – | – | – | – |
| CC(C)C(=O)N1CCC[C@]12CN([C@H](C(N)=O)[C@@H](C)O)C2=O [Compound A] | restore NR2B surface expression to levels observed in the “No Ab” control | increase surface NR2B expression | restore NR2B surface expression to levels observed in the “No Ab” control | restored cell surface NR2B expression to vehicle levels | abolishes the ability | abolishes the ability | ~20% | rescues Schaffer collateral-CA1 LTP | increased the magnitude of LTP |
| COc1ccc(CN2C[C@]3(CCNC(=O)C3)C2=O)cc1 [Compound D] | failed to restore NR2B surface expression | – | – | – | – | – | – | – | – |
| CC(C)CN1[C@@]2(CC[C@@]13CNC3=O)CNC2=O [G] | failed to restore NR2B surface expression | – | – | – | – | – | – | – | – |
| CC(C)CN1CCC[C@]12CN([C@H](C(N)=O)[C@@H](C)O)C2=O [E] | failed to restore NR2B surface expression | – | – | – | – | – | – | – | – |

Source: patent US20220273629A1, “METHODS OF TREATING DISORDERS ASSOCIATED WITH ELEVATED LEVELS OF ANTIBODIES THAT INTERACT WITH THE NMDA RECEPTOR” (Aptinyx Inc., priority 2019, published 2022)
